Test results: PubChem BioAssay (NCI)
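Exposure lasted 48 hours, with cells grown in 96-well plates and compounds tested at five concentrations. At the GI50, growth is halved. TGI denotes the concentration required for complete inhibition of growth.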

What was measured:
Experiment in all cases: NCI-60 cell line screen, 48 h
[1] = system: CCRF-CEM leukemia
[2] = system: MOLT-4 leukemia
[3] = system: OVCAR-4 ovarian
[4] = system: A549 NSCLC
[5] = system: NCI/ADR-RES ovarian
[6] = system: ACHN renal
[7] = system: HL-60(TB) leukemia
[8] = system: SK-MEL-5 melanoma
[9] = system: MDA-N
[10] = system: NCI-H522 lung

Structure (SMILES) | TGI [1] [µM] | TGI [2] [µM] | TGI [3] [µM] | TGI [4] [µM] | TGI [5] [µM] | TGI [6] [µM] | TGI [7] [µM] | TGI [8] [µM] | TGI [9] [µM] | TGI [10] [µM] | GI50 [8] [µM] | GI50 [1] [µM] | GI50 [2] [µM] | GI50 [3] [µM] | GI50 [10] [µM] | GI50 [4] [µM] | GI50 [5] [µM] | GI50 [6] [µM] | GI50 [7] [µM]
COc1ccc(C2=N/C(=C\c3ccccc3)C(=O)O2)cc1 | > 100 | 52.6 | > 100 | > 100 | 43.4 | > 100 | 31 | – | – | – | – | – | – | – | – | – | – | – | –
OCCc1ccsc1-c1sc(-c2cc(CCO)c(-c3sccc3CCO)s2)cc1CCO | > 100 | > 100 | 34 | > 100 | 38.5 | 35.9 | – | 52.9 | 63.5 | 25.7 | – | – | – | – | – | – | – | – | –
CN(C)C1(N(C)C)Oc2c(c(=O)n(C)c(=O)n2C)C(c2ccc(Br)cc2)C1(F)F (stereo unspecified) | > 100 | > 100 | > 100 | > 100 | > 100 | > 100 | – | > 100 | – | – | – | – | – | – | – | – | – | – | –
CCN(CC)CCN(C(=Nc1ccccc1)N1CCOCC1)c1ccccc1 | > 100 | > 100 | > 100 | > 100 | > 100 | – | > 100 | > 100 | – | > 100 | – | – | – | – | – | – | – | – | –
Cc1ccc(-c2[nH]c(=O)n(C3OC(CO)C(O)C(O)C3O)c(=O)c2C#N)cc1 (stereo unspecified) | > 100 | > 100 | > 100 | > 100 | > 100 | > 100 | > 100 | > 100 | – | > 100 | – | – | – | – | – | – | – | – | –
CN(C)c1ccc(S(=O)Nc2ccccc2)cc1 (stereo unspecified) | > 100 | > 100 | > 100 | > 100 | > 100 | > 100 | > 100 | 50.7 | – | > 100 | – | – | – | – | – | – | – | – | –
CS(=O)(=O)OCC(CCl)(CCl)CCl | > 100 | > 100 | > 100 | > 100 | > 100 | > 100 | – | > 100 | > 100 | > 100 | – | – | – | – | – | – | – | – | –
CCCSCC(P(=O)(O)O)P(=O)(O)O | > 100 | > 100 | > 100 | > 100 | > 100 | – | > 100 | > 100 | – | > 100 | – | – | – | – | – | – | – | – | –
O=c1[nH]c(=O)n(C2OC(CO)C(O)C2O)c2nc(-c3ccc(-c4ccccc4)cc3)cnc12 (stereo unspecified) | > 100 | > 100 | > 100 | > 100 | > 100 | > 100 | – | > 100 | > 100 | > 100 | – | – | – | – | – | – | – | – | –
NS(=O)(=O)c1cc2c(cc1Cl)NC(CCC(=O)O)=NS2(=O)=O | – | – | > 100 | > 100 | > 100 | > 100 | – | > 100 | > 100 | > 100 | – | – | – | – | – | – | – | – | –
O=[N+]([O-])C(/C=C(\Cl)n1nnc2ccccc21)=C(/Cl)n1nnc2ccccc21 | > 100 | > 100 | > 100 | > 100 | > 100 | > 100 | – | > 100 | > 100 | > 100 | – | – | – | – | – | – | – | – | –
O=C1c2ccccc2-c2c1c(-c1ccc(F)cc1)nc1ccc3ccccc3c21 | > 100 | > 100 | > 100 | > 100 | > 100 | > 100 | – | – | > 100 | – | – | – | – | – | – | – | – | – | –
CSc1nsc(-c2ccccc2)[s+]1 | > 100 | > 100 | > 100 | > 100 | – | > 100 | > 100 | > 100 | – | > 100 | – | – | – | – | – | – | – | – | –
COc1ccc2c(C)cc(=O)oc2c1OC | > 100 | > 100 | > 100 | > 100 | > 100 | > 100 | – | > 100 | > 100 | – | – | – | – | – | – | – | – | – | –
CC1=NS(=O)(=O)c2ccccc2N1 | > 100 | > 100 | > 100 | > 100 | – | > 100 | > 100 | > 100 | – | > 100 | – | – | – | – | – | – | – | – | –
CCOC(=O)c1c(C)nc2c3ccccc3c(C#N)c(C)n12 | > 100 | > 100 | > 100 | > 100 | > 100 | > 100 | > 100 | > 100 | – | 89.3 | – | – | – | – | – | – | – | – | –
CO[C@H]1/C=C(/C)CCC[C@H](C)[C@H](O)[C@@H](C)C(=O)C(C)(C)[C@@H](O)CC(=O)O[C@@H]1/C(C)=C/c1csc(C)n1 | > 100 | > 100 | > 100 | > 100 | 0.128 | > 100 | > 100 | > 100 | – | 0.0224 | 0.0186 | 0.03 | 0.0359 | 0.071 | < 0.01 | 0.0219 | 0.0252 | 0.0555 | < 0.01
N#Cc1c(-c2ccccc2)/c(=C\Nc2ccc(F)cc2)c(=O)n2c1nc1ccccc12 | > 100 | – | > 100 | > 100 | 64.9 | > 100 | – | > 100 | 57.9 | 34.3 | – | – | – | – | – | – | – | – | –
COc1ccc(NC(=O)CC(=O)N2N=C(N3c4ccccc4Sc4ccccc43)CC2c2ccccc2)cc1 (stereo unspecified) | > 100 | > 100 | > 100 | > 100 | > 100 | > 100 | > 100 | > 100 | – | > 100 | – | – | – | – | – | – | – | – | –
